Test systems include ACHN; BT-549; DU-145; HL-60; HT-29; IGROV-1; KM12; LOX IMVI; M14; MCF7; MDA-MB-231; Malme-3M; NCI-H226; NCI-H23; PC-3; SF-268; SF-295; SK-MEL-28; SW-620; CCRF-CEM.
Holding throughout (test): NCI-60 cell line screen, 48 h

Molecules are shown by their SMILES.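 Growth conditions: 96-well plates. Treatment: test compound, 48 hours, 5 concentrations. Analysis: linear interpolation between bracketing concentrations; unreached endpoints set to highest concentration. Here, GI50 denotes the concentration required for 50% inhibition of growth.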 The source made the active and inactive calls. No stated cut-off is given here; in the data, active = GI50 up to about 1.1 µM and inactive = higher. Some results are limits rather than exact numbers.

For the molecule `O=C(NCc1cccnc1)NCc1cccnc1`, the GI50 in the experiment on ACHN, in the experiment on BT-549, with DU-145, in the experiment on HL-60, with HT-29 and in the experiment on IGROV-1 was > 100 µM (inactive) each time. For the same molecule, the GI50 in the experiment on KM12, with LOX IMVI, in the experiment on M14, with MCF7, with MDA-MB-231 and in the experiment with Malme-3M was > 100 µM (inactive) in each case. The GI50 in the experiment on NCI-H226 was 58.9 µM (inactive); in the experiment on NCI-H23, > 100 µM (inactive); in the experiment on PC-3, > 100 µM (inactive); in the experiment on SF-268 it was > 100 µM (inactive); in the experiment with SF-295 it was > 100 µM (inactive); in the experiment on SK-MEL-28, > 100 µM (inactive). Moreover, the GI50 in the experiment with SW-620 is > 100 µM (inactive).

As for `COC1C(O)C(O[C@H]2CC[C@@]3(C)C(CC[C@@H]4[C@@H]3CC[C@]3(C)[C@@H](C(C)OC5OC(CO)C(O)C(O)C5O)CC[C@]43O)C2)OC(C)C1OC1OC(CO)C(O)C(O)C1O` (stereo not given in full), the GI50 in the experiment on ACHN, in the experiment on BT-549, with CCRF-CEM, in the experiment on DU-145, in the experiment on HT-29 and in the experiment with IGROV-1 was > 100 µM (inactive) each time. Moreover, the GI50 in the experiment with KM12, in the experiment on LOX IMVI, in the experiment with M14, in the experiment with MCF7, with MDA-MB-231 and in the experiment with Malme-3M was > 100 µM (inactive) throughout. The GI50 with NCI-H226, in the experiment with NCI-H23, with PC-3, in the experiment with SF-268, in the experiment with SF-295 and with SK-MEL-28 was > 100 µM (inactive) in each case. The GI50 in the experiment on SW-620 was > 100 µM (inactive).

Regarding `COc1ccc(OC)c2c1ccc1c(C)c3ccccc3c(C)c12`, the GI50 in the experiment on ACHN is > 100 µM (inactive); in the experiment on BT-549, > 100 µM (inactive); with CCRF-CEM it was > 100 µM (inactive); in the experiment on DU-145 it was > 100 µM (inactive); in the experiment with HL-60, 57.1 µM (inactive); with HT-29, 95.1 µM (inactive). Besides, the GI50 in the experiment with IGROV-1 was > 100 µM (inactive); in the experiment with LOX IMVI, 60.1 µM (inactive); with M14, 82 µM (inactive); in the experiment with MCF7 it was 20.9 µM (inactive); with MDA-MB-231 it was 16 µM (inactive); in the experiment on Malme-3M, > 100 µM (inactive). The GI50 with NCI-H226 was > 100 µM (inactive); with NCI-H23, 89.5 µM (inactive); with PC-3, > 100 µM (inactive); in the experiment with SF-268, > 100 µM (inactive); in the experiment with SK-MEL-28, > 100 µM (inactive).

`Nc1ncn2c(n1)nc1ccccc12`: the GI50 in the experiment on ACHN, with BT-549, in the experiment on CCRF-CEM, with DU-145, with HL-60 and with HT-29 was > 100 µM (inactive) each time. In addition, the GI50 in the experiment on IGROV-1, with KM12, in the experiment on M14, in the experiment with MCF7, in the experiment with MDA-MB-231 and in the experiment with Malme-3M was > 100 µM (inactive) each time. The GI50 in the experiment on NCI-H226, with NCI-H23, with PC-3, in the experiment with SF-268, with SF-295 and in the experiment with SK-MEL-28 was > 100 µM (inactive) throughout. In addition, the GI50 in the experiment with SW-620 was > 100 µM (inactive).

Take `CN(C)/N=N/c1nc2c(c(=O)n(C)c(=O)n2C)n1CC(O)CO` (stereo not given): the GI50 with ACHN, in the experiment with BT-549, with CCRF-CEM, with DU-145, with HL-60 and in the experiment on HT-29 was > 100 µM (inactive) each time. Further, the GI50 was > 100 µM (inactive) with IGROV-1; > 100 µM (inactive) in the experiment with KM12; > 100 µM (inactive) in the experiment on M14; 10.6 µM (inactive) with MCF7; > 100 µM (inactive) with MDA-MB-231; > 100 µM (inactive) in the experiment with Malme-3M. Besides, the GI50 in the experiment on NCI-H226, with NCI-H23, with PC-3, in the experiment on SF-268, in the experiment with SF-295 and in the experiment on SK-MEL-28 was > 100 µM (inactive) each time. Further, the GI50 in the experiment with SW-620 was > 100 µM (inactive).

For `O=[N+]([O-])c1ccc(C(c2c[nH]c3ccccc23)c2c[nH]c3ccccc23)cc1`, the GI50 was 8.05 µM (inactive) in the experiment on ACHN; 4.97 µM (inactive) in the experiment with BT-549; 0.309 µM (active) with CCRF-CEM; 4.47 µM (inactive) with DU-145; 17.7 µM (inactive) in the experiment with HL-60; 11.5 µM (inactive) in the experiment on HT-29. Moreover, the GI50 in the experiment on KM12 was 6.24 µM (inactive); in the experiment on LOX IMVI it was 11.1 µM (inactive); in the experiment on M14, 11.7 µM (inactive); with MCF7, 2.24 µM (inactive); with MDA-MB-231 it was 12.4 µM (inactive); with Malme-3M, 15.5 µM (inactive). Moreover, the GI50 was 10.7 µM (inactive) with NCI-H226; 7.1 µM (inactive) in the experiment with NCI-H23; 12.3 µM (inactive) in the experiment with PC-3; 8.85 µM (inactive) in the experiment on SF-268; 22.6 µM (inactive) with SF-295; 18.5 µM (inactive) in the experiment with SK-MEL-28. In addition, in the experiment on SW-620, the GI50 was 12.4 µM (inactive).

Take `COC(=O)[C@H](Cc1c[nH]c2ccccc12)NC(=O)c1ccc(CNC(=O)/C(C)=C/c2ccccc2)cc1`: the GI50 was 52.5 µM (inactive) in the experiment with ACHN; 28.1 µM (inactive) in the experiment with BT-549; 41 µM (inactive) in the experiment with CCRF-CEM; 32.5 µM (inactive) in the experiment with DU-145; > 100 µM (inactive) in the experiment with HT-29; 32.1 µM (inactive) in the experiment with IGROV-1. The GI50 in the experiment on KM12 was 87.7 µM (inactive); with LOX IMVI, 44.3 µM (inactive); in the experiment on M14, 15.9 µM (inactive); with MCF7, 29.2 µM (inactive); in the experiment with MDA-MB-231 it was 17.8 µM (inactive); in the experiment with Malme-3M, 13 µM (inactive). The GI50 with NCI-H226 is > 100 µM (inactive); in the experiment on NCI-H23, 25.7 µM (inactive); in the experiment on PC-3 it was 20.7 µM (inactive); in the experiment with SF-268 it was 97.5 µM (inactive); in the experiment with SF-295, 60.1 µM (inactive); with SK-MEL-28 it was 18.2 µM (inactive). Besides, the GI50 in the experiment with SW-620 was > 100 µM (inactive).

On to `O/N=N/c1ccc([SH2]c2ccc3ccccc3c2)cn1`, for which the GI50 is 18.6 µM (inactive) in the experiment with ACHN; 23 µM (inactive) with BT-549; 3.04 µM (inactive) in the experiment with CCRF-CEM; 17.1 µM (inactive) in the experiment on DU-145; 3.97 µM (inactive) with HL-60; 34 µM (inactive) with HT-29. Besides, the GI50 with IGROV-1 is 32.7 µM (inactive); with KM12, 41.4 µM (inactive); with M14, 19.3 µM (inactive); with MCF7, 17.9 µM (inactive); in the experiment on MDA-MB-231, 30.1 µM (inactive); in the experiment on Malme-3M, 0.955 µM (active). Also, the GI50 in the experiment with NCI-H226 was 31.6 µM (inactive); with NCI-H23 it was 12.2 µM (inactive); in the experiment on PC-3, 8.85 µM (inactive); in the experiment on SF-268 it was 22.3 µM (inactive); in the experiment with SF-295 it was 25.8 µM (inactive); with SK-MEL-28, 32.7 µM (inactive). The GI50 in the experiment with SW-620 is 28.3 µM (inactive).

The values are drawn from ChEMBL document CHEMBL1201862, “PubChem BioAssay data set” (2004).
